What is called IC50 is the concentration that inhibits the measured activity by half. The low end stands for greater potency in that assay, the high end for weaker potency in that assay. By DC50 is commonly meant the concentration at which degradation of the target reaches its halfway point. In general, Dmax refers to the greatest extent of degradation seen.

Experiment [1] has as its target GST-tagged wild-type human CRBN protein (Homo sapiens (Human), UniProt Q96SW2). The experiment is described as follows: Cereblon Binding Assay (Cisbio Cereblon Binding Kit, TR-FRET). The following applies: about 3 hours at room temperature. How it is done: The binding to cereblon (CRBN) is determined using the Cereblon Binding Kit (Cisbio, #64BDCRBNPEG) following the manufacturer's instruction. Briefly, serially diluted compounds are incubated with GST-tagged wild-type human CRBN protein, XL665-labelled Thalidomide and Europium Cryptate labelled GST antibody.
The binding to cereblon (CRBN) was determined using the Cereblon Binding Kit (Cisbio, #64BDCRBNPEG) following the manufacturer's instruction. Briefly, serially diluted compounds were incubated with GST-tagged wild-type human CRBN protein, XL665-labelled Thalidomide and Europium Cryptate labelled GST antibody at room temperature for about 3 hours.
In general terms: TR-FRET usually uses a lanthanide donor and a delayed reading to cut background.

Experiment [2] deals with IKZF2 (Homo sapiens (Human), UniProt Q96SW2+Q9UKS7). Description: IKZF2 HiBiT Assay (Jurkat-IKZF2-HiBiT cell line). The experiment is classed as cell-based. The following applies: Jurkat-IKZF2-HiBiT cells, 24 hours; for DC50: read-out: HiBit assay degradation analysis DC50; for Dmax: read-out: HiBit assay degradation analysis Dmax. The procedure, abridged: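 Jurkat cells carrying HiBiT-tagged IKZF2 were exposed to serially diluted compound for 24 h at 37 °C. Remaining IKZF2 was measured by Nano-Glo HiBiT lytic luminescence after 10-20 min at room temperature. Signal was normalized to DMSO, and IC50 came from a four-parameter variable-slope fit.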
Sequence of IKZF2 (Q9UKS7 whole entry): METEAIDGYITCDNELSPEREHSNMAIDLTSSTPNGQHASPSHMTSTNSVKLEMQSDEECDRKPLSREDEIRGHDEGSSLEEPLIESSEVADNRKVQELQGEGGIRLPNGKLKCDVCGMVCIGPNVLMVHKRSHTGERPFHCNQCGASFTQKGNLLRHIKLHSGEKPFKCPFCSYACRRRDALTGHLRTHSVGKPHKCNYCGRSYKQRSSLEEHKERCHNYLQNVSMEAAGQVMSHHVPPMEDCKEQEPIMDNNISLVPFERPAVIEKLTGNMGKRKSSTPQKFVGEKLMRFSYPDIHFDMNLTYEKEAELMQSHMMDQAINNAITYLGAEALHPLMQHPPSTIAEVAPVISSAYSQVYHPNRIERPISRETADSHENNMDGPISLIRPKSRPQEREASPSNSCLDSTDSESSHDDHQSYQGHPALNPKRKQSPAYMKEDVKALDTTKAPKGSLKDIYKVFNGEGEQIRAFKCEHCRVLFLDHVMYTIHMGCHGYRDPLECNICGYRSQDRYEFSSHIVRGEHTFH
Sequence of IKZF2 (Q96SW2 whole entry): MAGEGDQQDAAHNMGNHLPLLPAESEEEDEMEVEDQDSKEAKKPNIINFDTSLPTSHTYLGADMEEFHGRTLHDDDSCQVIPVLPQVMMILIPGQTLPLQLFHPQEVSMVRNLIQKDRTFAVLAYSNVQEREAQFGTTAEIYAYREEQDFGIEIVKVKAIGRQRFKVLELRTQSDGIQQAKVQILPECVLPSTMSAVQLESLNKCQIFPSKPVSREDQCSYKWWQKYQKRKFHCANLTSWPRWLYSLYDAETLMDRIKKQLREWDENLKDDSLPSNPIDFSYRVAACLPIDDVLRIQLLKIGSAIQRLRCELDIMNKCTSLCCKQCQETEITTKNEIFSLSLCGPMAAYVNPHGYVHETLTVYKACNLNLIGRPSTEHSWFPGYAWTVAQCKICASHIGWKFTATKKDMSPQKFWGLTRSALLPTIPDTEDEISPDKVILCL
Sequence of IKZF2 (Q16531 whole entry partner): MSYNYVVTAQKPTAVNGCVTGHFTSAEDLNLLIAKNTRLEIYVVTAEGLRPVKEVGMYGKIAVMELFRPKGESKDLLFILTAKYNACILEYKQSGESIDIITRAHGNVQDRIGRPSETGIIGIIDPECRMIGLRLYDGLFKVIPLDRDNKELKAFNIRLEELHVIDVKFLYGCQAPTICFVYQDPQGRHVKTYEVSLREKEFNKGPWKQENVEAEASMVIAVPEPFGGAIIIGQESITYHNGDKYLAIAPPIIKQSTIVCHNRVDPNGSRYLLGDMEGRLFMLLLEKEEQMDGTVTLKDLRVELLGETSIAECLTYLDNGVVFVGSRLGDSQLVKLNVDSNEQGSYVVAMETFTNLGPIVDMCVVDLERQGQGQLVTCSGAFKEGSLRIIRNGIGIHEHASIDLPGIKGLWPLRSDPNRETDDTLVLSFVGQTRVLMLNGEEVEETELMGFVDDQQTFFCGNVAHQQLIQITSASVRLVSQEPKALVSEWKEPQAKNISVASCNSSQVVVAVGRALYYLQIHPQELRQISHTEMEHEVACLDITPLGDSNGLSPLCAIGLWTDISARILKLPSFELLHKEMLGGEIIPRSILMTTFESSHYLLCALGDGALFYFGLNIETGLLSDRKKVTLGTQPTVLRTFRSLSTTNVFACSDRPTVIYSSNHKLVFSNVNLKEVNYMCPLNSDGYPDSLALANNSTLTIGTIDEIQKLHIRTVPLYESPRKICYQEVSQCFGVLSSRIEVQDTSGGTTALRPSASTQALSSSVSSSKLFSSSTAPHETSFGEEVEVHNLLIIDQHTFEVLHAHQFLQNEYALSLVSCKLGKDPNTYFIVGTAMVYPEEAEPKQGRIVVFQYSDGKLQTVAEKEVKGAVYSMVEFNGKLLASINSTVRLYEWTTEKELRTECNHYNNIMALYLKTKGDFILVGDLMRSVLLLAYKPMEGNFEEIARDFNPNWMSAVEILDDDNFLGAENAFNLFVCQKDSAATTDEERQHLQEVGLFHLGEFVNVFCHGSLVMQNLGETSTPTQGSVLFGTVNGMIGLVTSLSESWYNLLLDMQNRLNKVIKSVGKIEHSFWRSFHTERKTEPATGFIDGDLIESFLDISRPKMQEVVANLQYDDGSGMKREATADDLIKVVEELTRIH
In general terms: HiBiT is a short tag that completes a luciferase, so light tracks the accessible tagged protein.

Sequence of GST-tagged wild-type human CRBN protein (Q96SW2 whole entry): as the sequence (Q96SW2 whole entry) above

The compound `O=C1CCC(N2Cc3c(ccc4c3OCC43CCN(Cc4ccc5ccoc5c4)CC3)C2=O)C(=O)N1` (stereo not drawn) [Compound A116, 3-(1′-(benzofuran-6-ylmethyl)-6-oxo-6,8-dihydro-2H,7H-spiro[furo[2,3-e]isoindole-3,4′-piperidin]-7-yl)piperidine-2,6-dione] came in with an IC50 in experiment [1] of 0.1 to 1 µM. Moreover, in experiment [2], the DC50 is below 0.05 µM and the Dmax is 60 to 80%.

In experiment [1], `O=C1CCC(N2Cc3c(ccc4c3OCC43CCN(Cc4cccc(Cn5cccn5)c4)CC3)C2=O)C(=O)N1` (stereo not drawn) [Compound A126, 3-(1′-(3-((1H-pyrazol-1-yl)methyl)benzyl)-6-oxo-6,8-dihydro-2H,7H-spiro[furo[2,3-e]isoindole-3,4′-piperidin]-7-yl)piperidine-2,6-dione] displayed a concentration for half-maximal inhibition (IC50) of 0.1 to 1 µM. Besides, in experiment [2], the DC50 was in the range of 0.2 to 0.5 µM and the Dmax is 40 to 60%.

In turn, `O=C1CCC(N2Cc3c(ccc4c3OCC43CCN(Cc4cccc5[nH]ccc45)CC3)C2=O)C(=O)N1` (stereo not drawn) [Compound A87, 3-(1′-((1H-indol-4-yl)methyl)-6-oxo-6,8-dihydro-2H,7H-spiro[furo[2,3-e]isoindole-3,4′-piperidin]-7-yl)piperidine-2,6-dione] registered a concentration for half-maximal inhibition (IC50) in experiment [1] of 0.1 to 1 µM. Moreover, in experiment [2], the DC50 is below 0.05 µM and the Dmax was above 80%.

`O=C1CCC(N2Cc3c(ccc4c3OCC43CCN(Cc4cccc(-c5cnn(C6COC6)c5)c4)CC3)C2=O)C(=O)N1` (stereo not drawn) [Compound A161, 3-(1′-(3-(1-(oxetan-3-yl)-1H-pyrazol-4-yl)benzyl)-6-oxo-6,8-dihydro-2H,7H-spiro[furo[2,3-e]isoindole-3,4′-piperidin]-7-yl)piperidine-2,6-dione] came in with a half-inhibitory concentration (IC50) in experiment [1] of 0.01 to 0.1 µM. Besides, in experiment [2], the half-maximal degradation concentration (DC50) was below 0.05 µM and the Dmax fell in the range of 60 to 80%.

`CCn1cc(-c2cccc(CN3CCC4(CC3)COc3c4ccc4c3CN(C3CCC(=O)NC3=O)C4=O)c2)cn1` (stereo not drawn) [Compound A145, 3-(1′-(3-(1-ethyl-1H-pyrazol-4-yl)benzyl)-6-oxo-6,8-dihydro-2H,7H-spiro[furo[2,3-e]isoindole-3,4′-piperidin]-7-yl)piperidine-2,6-dione]: the IC50 in experiment [1] fell in the range of 0.01 to 0.1 µM. Besides, in experiment [2], the DC50 was below 0.05 µM and the maximal degradation (Dmax) lay within 60 to 80%.

For `O=C1CCC(N2Cc3c(ccc4c3OCC43CCN(Cc4cccc(-c5cccnc5)c4)CC3)C2=O)C(=O)N1` (stereo not drawn) [Compound A132, 3-(6-oxo-1′-(3-(pyridin-3-yl)benzyl)-6,8-dihydro-2H,7H-spiro[furo[2,3-e]isoindole-3,4′-piperidin]-7-yl)piperidine-2,6-dione], the IC50 in experiment [1] was 0.1 to 1 µM. Also, in experiment [2], the DC50 is below 0.05 µM and the greatest degradation seen (Dmax) was 60 to 80%.

For `O=C1CCC(N2Cc3c(ccc4c3OCC43CCN(Cc4ccc5cn[nH]c5c4)CC3)C2=O)C(=O)N1` (stereo not drawn) [Compound A56, 3-(1′-((1H-indazol-6-yl)methyl)-6-oxo-6,8-dihydro-2H,7H-spiro[furo[2,3-e]isoindole-3,4′-piperidin]-7-yl)piperidine-2,6-dione], the IC50 in experiment [1] fell in the range of 0.1 to 1 µM. Further, in experiment [2], the 50% degradation concentration (DC50) was below 0.05 µM and the Dmax was 60 to 80%.

In experiment [1], `O=C1CCC(N2Cc3c(ccc4c3OCC43CCN(Cc4ccc5cc[nH]c5c4)CC3)C2=O)C(=O)N1` (stereo not drawn) [Compound A129, 3-(1′-((1H-indol-6-yl)methyl)-6-oxo-6,8-dihydro-2H,7H-spiro[furo[2,3-e]isoindole-3,4′-piperidin]-7-yl)piperidine-2,6-dione] gave an IC50 of 0.01 to 0.1 µM. Further, in experiment [2], the DC50 is below 0.05 µM and the Dmax was in the range of 60 to 80%.

As for `O=C1CCC(N2Cc3c(ccc4c3OCC43CCN(Cc4cccc(-n5cncn5)c4)CC3)C2=O)C(=O)N1` (stereo not drawn) [Compound A124, 3-(1′-(3-(1H-1,2,4-triazol-1-yl)benzyl)-6-oxo-6,8-dihydro-2H,7H-spiro[furo[2,3-e]isoindole-3,4′-piperidin]-7-yl)piperidine-2,6-dione], in experiment [1], the IC50 lay within 0.1 to 1 µM. In experiment [2], the DC50 fell in the range of 0.2 to 0.5 µM and the maximal degradation (Dmax) was 40 to 60%.

In experiment [1], `O=C1CCC(N2Cc3c(ccc4c3OCC43CCN(Cc4cc(Br)cc5[nH]ncc45)CC3)C2=O)C(=O)N1` (stereo not drawn) [Compound A127, 3-(1′-((6-bromo-1H-indazol-4-yl)methyl)-6-oxo-6,8-dihydro-2H,7H-spiro[furo[2,3-e]isoindole-3,4′-piperidin]-7-yl)piperidine-2,6-dione] yielded a concentration for half-maximal inhibition (IC50) of 0.1 to 1 µM. In experiment [2], the 50% degradation concentration (DC50) is below 0.05 µM and the Dmax is 40 to 60%.

For the compound `Cc1ccc(CN2CCC3(CC2)COc2c3ccc3c2CN(C2CCC(=O)NC2=O)C3=O)cc1` (stereo not drawn) [Compound A15, 3-(1′-(4-methylbenzyl)-6-oxo-6,8-dihydro-2H,7H-spiro[furo[2,3-e]isoindole-3,4′-piperidin]-7-yl)piperidine-2,6-dione], the IC50 in experiment [1] is 0.1 to 1 µM. In addition, in experiment [2], the 50% degradation concentration (DC50) lay within 0.2 to 0.5 µM and the greatest degradation seen (Dmax) fell in the range of 40 to 60%.

In turn, `O=C1CCC(N2Cc3c(ccc4c3OCC43CCN(Cc4cc(Cl)cc5[nH]ncc45)CC3)C2=O)C(=O)N1` (stereo not drawn) [Compound A128, 3-(1′-((6-chloro-1H-indazol-4-yl)methyl)-6-oxo-6,8-dihydro-2H,7H-spiro[furo[2,3-e]isoindole-3,4′-piperidin]-7-yl)piperidine-2,6-dione] came in with a half-maximal inhibitory concentration (IC50) in experiment [1] of 0.1 to 1 µM. In experiment [2], the half-maximal degradation concentration (DC50) was 0.05 to 0.2 µM and the Dmax was in the range of 40 to 60%.

Turning to `Cn1cc2ccc(CN3CCC4(CC3)COc3c4ccc4c3CN(C3CCC(=O)NC3=O)C4=O)cc2n1` (stereo not drawn) [Compound A69, 3-(1′-((2-methyl-2H-indazol-6-yl)methyl)-6-oxo-6,8-dihydro-2H,7H-spiro[furo[2,3-e]isoindole-3,4′-piperidin]-7-yl)piperidine-2,6-dione], the IC50 in experiment [1] lay within 0.1 to 1 µM. Moreover, in experiment [2], the half-maximal degradation concentration (DC50) was below 0.05 µM and the Dmax lay in the range of 60 to 80%.

As for `O=C1CCC(N2Cc3c(ccc4c3OCC43CCN(Cc4cccc(-c5cnco5)c4)CC3)C2=O)C(=O)N1` (stereo not drawn) [Compound A125, 3-(1′-(3-(oxazol-5-yl)benzyl)-6-oxo-6,8-dihydro-2H,7H-spiro[furo[2,3-e]isoindole-3,4′-piperidin]-7-yl)piperidine-2,6-dione], the half-maximal inhibitory concentration (IC50) in experiment [1] is 0.1 to 1 µM. In experiment [2], the half-maximal degradation concentration (DC50) was below 0.05 µM and the Dmax is 60 to 80%.

In experiment [1], `Cn1ccc(-c2cccc(CN3CCC4(CC3)COc3c4ccc4c3CN(C3CCC(=O)NC3=O)C4=O)c2)n1` (stereo not drawn) [Compound A134, 3-(1′-(3-(1-methyl-1H-pyrazol-3-yl)benzyl)-6-oxo-6,8-dihydro-2H,7H-spiro[furo[2,3-e]isoindole-3,4′-piperidin]-7-yl)piperidine-2,6-dione] registered a half-inhibitory concentration (IC50) of 0.1 to 1 µM. Also, in experiment [2], the half-maximal degradation concentration (DC50) is below 0.05 µM and the Dmax is 60 to 80%.

As to `Cn1ccc2ccc(CN3CCC4(CC3)COc3c4ccc4c3CN(C3CCC(=O)NC3=O)C4=O)cc21` (stereo not drawn) [Compound A130, 3-(1′-((1-methyl-1H-indol-6-yl)methyl)-6-oxo-6,8-dihydro-2H,7H-spiro[furo[2,3-e]isoindole-3,4′-piperidin]-7-yl)piperidine-2,6-dione], the 50% inhibitory concentration (IC50) in experiment [1] was 0.1 to 1 µM. In experiment [2], the half-maximal degradation concentration (DC50) was below 0.05 µM and the maximal degradation (Dmax) was 60 to 80%.

Turning to `O=C1CCC(N2Cc3c(ccc4c3OCC43CCN(Cc4ccc(C(F)F)cc4)CC3)C2=O)C(=O)N1` (stereo not drawn) [Compound A3, 3-(1′-(4-(difluoromethyl)benzyl)-6-oxo-6,8-dihydro-2H,7H-spiro[furo[2,3-e]isoindole-3,4′-piperidin]-7-yl)piperidine-2,6-dione], in experiment [1], the IC50 lay within 0.01 to 0.1 µM. For the same compound, in experiment [2], the DC50 was above 0.5 µM and the Dmax lay in the range of 40 to 60%.

These data come from US20250215012A1, “IKZF2 DEGRADERS AND USES THEREOF” (REGENTS OF THE UNIVERSITY OF MICHIGAN, priority 2022, published 2025).
